Assay results as given in US8557848B2, “4,5-ring annulated indole derivatives for treating or preventing of HCV and related viral infections” (Merck Sharp & Dohme Corp., priority 2006, dated 2013).
Like-named read-outs stand apart in the source and are kept apart here.

Tests used:
[1] = target: T1, HCV NS5B polymerase (NS5BΔCT21, from HCV-Con 1 isolate, genotype 1b) (Hepatitis C virus genotype 1b, UniProt Q9WMX2); test: HCV NS5B Polymerase Inhibition Assay; type: biochemical
T1 construct: A soluble C-terminal 21-amino acid truncated NS5B enzyme form; polyhistidine (C); made in house; host or cells: Escherichia coli
Excerpt: A chemically synthesized 75-mer version, designated DCoH75, whose sequence matches the 3′-end of D-RNA, and DCoH75ddC, where the 3′-terminal cytidine of DCoH75 is replaced by dideoxycytidine, were used for assaying the NS5B enzyme activity as described in Ferrari et al., 12th International Symposium on HCV and Related Viruses, P-306 (2005). The sequence of the template RNA was: 5′-UGUGCCGGUCUUUCUGAACGGGAUAUAAACCUGGCCAGCUUCAUCGAACAAGUUGCCGUGUCUAUGACAUAGAUC-3′. A soluble C-terminal 21-amino acid truncated NS5B enzyme form (NS5BΔCT21, from HCV-Con 1 isolate, genotype 1b, Genbank accession number AJ238799) was produced and purified from Escherichia coli as C-terminal polyhistidine-tagged fusion protein as described in Ferrari et al., J. Virol. 73:1649-1654 (1999). A typical assay contained 20 mM Hepes pH 7.3, 10 mM MgCl2, 60 mM NaCl, 100 μg/ml BSA, 20 units/ml RNasin, 7.5 mM DTT, 0.1 μM ATP/GTP/UTP, 0.026 μM CTP, 0.25 mM GAU, 0.03 μM RNA template, 20 μCi/ml [^33P]-CTP, 2% DMSO, and 30 or 150 nM NS5B enzyme. Reactions were incubated at 22° C. for 2 hours, then stopped by adding 150 mM EDTA, washed in DE81 filter plate in 0.5M di-basic sodium phosphate buffer, pH 7.0, and counted using Packard TopCount after the addition of scintillation cocktail. Polynucleotide synthesis was monitored by the incorporation of radiolabeled CTP. The effect of the Compounds of Formula (I) on the polymerase activity was evaluated by adding various concentrations of a Compound of Formula (I), typically in 10 serial 2-fold dilutions, to the assay mixture. The starting concentrations ranged from 200 μM to 1 μM. An IC50 value for the inhibitor, defined as the compound concentration that provides 50% inhibition of polymerase activity, was determined by fitting the cpm data to the Hill equation Y=100/(1+10^((LogIC50-X)*HillSlope)), where X is the logarithm of compound concentration, and Y is the % inhibition. Ferrari et al., 12th International Symposium on HCV and Related Viruses, P-306 (2005) described in detail this assay procedure. It should be noted that such an assay as described is exemplary and not intended to limit the scope of the invention. The skilled practitioner can appreciate that modifications including but not limited to RNA template, primer, nucleotides, NS5B polymerase form, buffer composition, can be made to develop similar assays that yield the same result for the efficacy of the compounds and compositions described in the invention.
NS5B polymerase inhibition data for selected Compounds of Formula (I) is provided below in Table 2, wherein the compound numbers correspond to the compound numbering set forth in the above specification.

[2] = tested on: HCV replicon cells (replicon RNA level); test: Cell-Based HCV Replicon Assay; details: Hepatitis C virus, 72 h; replicon RNA level by real time PCR (Taqman), cells harvested on day 3; read-out: EC50
Protocol: To measure cell-based anti-HCV activity of the a Compound of Formula (I), replicon cells were seeded at 5000 cells/well in 96-well collagen I-coated Nunc plates in the presence of the Compound of Formula (I). Various concentrations of a Compound of Formula (I), typically in 10 serial 2-fold dilutions, were added to the assay mixture, with the starting concentration ranging from 250 μM to 1 μM. The final concentration of DMSO was 0.5%, fetal bovine serum was 5%, in the assay media. Cells were harvested on day 3 by the addition of 1× cell lysis buffer (Ambion cat #8721). The replicon RNA level was measured using real time PCR (Taqman assay). The amplicon was located in 5B. The PCR primers were: 5B.2F, ATGGACAGGCGCCCTGA; 5B.2R, […]; the probe sequence was FAM-labeled CACGCCATGCGCTGCGG. GAPDH RNA was used as endogenous control and was amplified in the same reaction as NS5B (multiplex PCR) using primers and VIC-labeled probe recommended by the manufacturer (PE Applied Biosystem). The real-time RT-PCR reactions were run on ABI PRISM 7900HT Sequence Detection System using the following program: 48° C. for 30 min, 95° C. for 10 min, 40 cycles of 95° C. for 15 sec, 60° C. for 1 min. The ΔCT values (CT5B-CTGAPDH) were plotted against the concentration of test compound and fitted to the sigmoid dose-response model using XLfit4 (MDL). EC50 was defined as the concentration of inhibitor necessary to achieve ΔCT=1 over the projected baseline; EC90 the concentration necessary to achieve ΔCT=3.2 over the baseline. Alternatively, to quantitate the absolute amount of replicon RNA, a standard curve was established by including serially diluted T7 transcripts of replicon RNA in the Taqman assay. All Taqman reagents were from PE Applied Biosystems. Such an assay procedure was described in detail in e.g. Malcolm et al., Antimicrobial Agents and Chemotherapy 50: 1013-1020 (2006).
HCV Replicon assay data for selected Compounds of Formula (I) is provided below in Table 1, wherein the compound numbers correspond to the compound numbering set forth in the above specification.

[3] = NS5B polymerase inhibition, [33P]-CTP incorporation, 22° C. for 2 hours, read-out: IC50

With `NC(=O)c1ccc(Cn2c(C(=O)O)c(-c3ccc[nH]c3=O)c3c4occc4c(F)cc32)cc1` [Compound 93] the IC50 [1, 3] was < 25 nM and the EC50 [2] was < 500 nM.
With `Cc1ccccc1Cn1c(C(=O)O)c(-c2ccc[nH]c2=O)c2c3occc3ccc21` [Compound 41] the IC50 [1, 3] was < 25 nM and the EC50 [2] was < 500 nM.
For `O=C(NS(=O)(=O)C1CC1)c1c(-c2ccc[nH]c2=O)c2c3occc3c(F)cc2n1Cc1cc(=O)[nH]cc1F` [Compound 174], the IC50 [1, 3] was < 25 nM and the EC50 [2] was < 500 nM.
For `NC(=O)c1cc(Cn2c(C(=O)O)c(-c3ccc[nH]c3=O)c3c4occc4c(F)cc32)cs1` [Compound 97], the IC50 [1, 3] was < 25 nM and the EC50 [2] was < 500 nM.
`Cc1c[nH]c(=O)cc1Cn1c(C(=O)O)c(-c2ccc[nH]c2=O)c2c3occc3c(F)cc21` [Compound 83] was tested, and the IC50 [1, 3] was < 25 nM and the EC50 [2] was < 500 nM.
For `O=c1[nH]cccc1-c1c(C2=NS(=O)(=O)c3ccccc3N2)n(Cc2ccccc2F)c2cc(F)c3ccoc3c12` [Compound 184], the IC50 [1, 3] was < 25 nM and the EC50 [2] was < 500 nM.
For `C[C@@H]1COc2c1ccc1c2c(-c2ccc[nH]c2=O)c(C(=O)NS(C)(=O)=O)n1Cc1cc(F)ccc1F` [Compound 148], the IC50 [1, 3] was < 25 nM and the EC50 [2] was < 500 nM.
`COc1ccc2nc(Cl)c(Cn3c(C(=O)O)c(-c4ccc[nH]c4=O)c4c5occc5c(F)cc43)cc2c1` [Compound 154] was tested, and the IC50 [1, 3] was < 25 nM and the EC50 [2] was < 500 nM.
In the case of `O=C(O)c1c(-c2ccc[nH]c2=O)c2c3occc3c(F)cc2n1Cc1cc(=O)[nH]c2ccccc12` [Compound 114], the IC50 [1] is reported as < 25 nM and the EC50 [2] is reported as < 500 nM.
In the case of `COc1cc(Cn2c(C(=O)OCOC(=O)C(C)(C)C)c(-c3cccn(COC(=O)C(C)(C)C)c3=O)c3c4occc4c(F)cc32)c(F)cn1` [Compound 226], the IC50 [1, 3] is reported as > 100 nM and the EC50 [2] is reported as < 500 nM.
`CS(=O)(=O)NC(=O)c1c(-c2ccc[nH]c2=O)c2c3occc3c(F)cc2n1Cc1csc(C(N)=O)c1` [Compound 165] was tested, and the IC50 [1, 3] was < 25 nM and the EC50 [2] was < 500 nM.
With `NC(=O)c1cc(Cn2c(C(=O)NS(=O)(=O)C3CC3)c(-c3ccc[nH]c3=O)c3c4occc4c(F)cc32)cs1` [Compound 183] the IC50 [1, 3] was < 25 nM and the EC50 [2] was < 500 nM.
In the case of `O=C(NS(=O)(=O)C1CC1)c1c(-c2ccc[nH]c2=O)c2c3occc3cc(F)c2n1Cc1cc(F)ccc1F` [Compound 178], the IC50 [1, 3] is reported as < 25 nM and the EC50 [2] is reported as < 500 nM.
`Cc1cccc(Cn2c(C(=O)NS(=O)(=O)C(C)C)c(-c3ccc[nH]c3=O)c3c4occc4ccc32)c1F` [Compound 158] was tested, and the IC50 [1, 3] was < 25 nM and the EC50 [2] was 500 to 1500 nM.
`CS(=O)(=O)NC(=O)c1c(-c2ccc[nH]c2=O)c2c3occc3ccc2n1Cc1ccc(F)cc1F` [Compound 4] was tested, and the IC50 [1, 3] was 25 to 100 nM and the EC50 [2] was < 500 nM.
With `Cc1ccccc1Cn1c(C(=O)NS(C)(=O)=O)c(-c2ccc[nH]c2=O)c2c3ncsc3ccc21` [Compound 51] the IC50 [1] was < 25 nM and the EC50 [2] was < 500 nM.
For `CS(=O)(=O)NC(=O)c1c(-c2ccc[nH]c2=O)c2c3occc3c(F)cc2n1Cc1cc(C(N)=O)ccc1F` [Compound 175], the IC50 [1, 3] was < 25 nM and the EC50 [2] was < 500 nM.
`CCCS(=O)(=O)NC(=O)c1c(-c2ccc[nH]c2=O)c2c3occc3c(F)cc2n1Cc1cc2ccccc2nc1Cl` [Compound 213] was tested, and the IC50 [1, 3] was < 25 nM and the EC50 [2] was < 500 nM.
For `CS(=O)(=O)NC(=O)c1c(-c2ccc[nH]c2=O)c2c3c(c(F)cc2n1Cc1cc2ccccc2nc1Cl)CCO3` [Compound 196], the IC50 [1, 3] was < 25 nM and the EC50 [2] was < 500 nM.
In the case of `NC(=O)c1cnc(F)c(Cn2c(C(=O)O)c(-c3ccc[nH]c3=O)c3c4occc4c(F)cc32)c1` [Compound 109], the IC50 [1, 3] is reported as < 25 nM and the EC50 [2] is reported as < 500 nM.
For `COc1ccc([N+](=O)[O-])cc1Cn1c(C(=O)O)c(-c2ccc[nH]c2=O)c2c3occc3ccc21` [Compound 104], the IC50 [1, 3] was < 25 nM and the EC50 [2] was > 1500 nM.
In the case of `O=C(O)c1c(-c2ccc[nH]c2=O)c2c3occc3ccc2n1Cc1ccccc1F` [Compound 1], the IC50 [1, 3] is reported as < 25 nM and the EC50 [2] is reported as < 500 nM.
In the case of `CS(=O)(=O)NC(=O)c1c(-c2ccc[nH]c2=O)c2c3occc3ccc2n1Cc1ccccc1Cl` [Compound 67], the IC50 [1, 3] is reported as < 25 nM and the EC50 [2] is reported as < 500 nM.
For `NC(=O)c1cnc(F)c(Cn2c(C(=O)NS(=O)(=O)C3CC3)c(-c3ccc[nH]c3=O)c3c4occc4c(F)cc32)c1` [Compound 197], the IC50 [1, 3] was < 25 nM and the EC50 [2] was < 500 nM.
`O=C(O)c1c(-c2ccc[nH]c2=O)c2c3occc3c(F)cc2n1Cc1cc[nH]c(=O)c1` [Compound 78] was tested, and the IC50 [1, 3] was 25 to 100 nM and the EC50 [2] was < 500 nM.
`Nc1cc(Cn2c(C(=O)O)c(-c3ccc[nH]c3=O)c3c4ncsc4ccc32)ccn1` [Compound 14] was tested, and the IC50 [1, 3] was < 25 nM and the EC50 [2] was 500 to 1500 nM.
For `CS(=O)(=O)NC(=O)c1c(-c2ccc[nH]c2=O)c2c3occc3c(F)cc2n1Cc1ccc2[nH]c(N)nc2c1` [Compound 169], the IC50 [1, 3] was < 25 nM and the EC50 [2] was < 500 nM.
For `NCc1ccc(Cn2c(C(=O)O)c(-c3ccc[nH]c3=O)c3c4occc4c(F)cc32)c(F)c1` [Compound 95], the IC50 [1, 3] was < 25 nM and the EC50 [2] was < 500 nM.
With `CS(=O)(=O)NC(=O)c1c(-c2ccc[nH]c2=O)c2c3occc3c(F)cc2n1Cc1cc2cccc(Br)c2o1` [Compound 218] the IC50 [1, 3] was < 25 nM and the EC50 [2] was > 1500 nM.
In the case of `CS(=O)(=O)NC(=O)c1c(-c2ccc[nH]c2=O)c2c3occc3c(F)cc2n1Cc1cc(Cl)nc2ccccc12` [Compound 193], the IC50 [1, 3] is reported as < 25 nM and the EC50 [2] is reported as 500 to 1500 nM.
With `O=C(NS(=O)(=O)C1CC1)c1c(-c2ccc[nH]c2=O)c2c3occc3c(F)cc2n1Cc1cc2ccccc2nc1Cl` [Compound 211] the IC50 [1, 3] was < 25 nM and the EC50 [2] was < 500 nM.
With `Cn1cc(F)c(Cn2c(C(=O)O)c(-c3ccc[nH]c3=O)c3c4occc4c(F)cc32)cc1=O` [Compound 96] the IC50 [1, 3] was < 25 nM and the EC50 [2] was < 500 nM.
In the case of `CS(=O)(=O)NC(=O)c1c(-c2ccc[nH]c2=O)c2c3occc3c(F)cc2n1Cc1ccc2onc(N)c2c1` [Compound 170], the IC50 [1, 3] is reported as < 25 nM and the EC50 [2] is reported as < 500 nM.
`COc1ccc2cc(Cn3c(C(=O)O)c(-c4ccc[nH]c4=O)c4c5occc5c(F)cc43)c(Cl)nc2c1` [Compound 153] was tested, and the IC50 [1, 3] was < 25 nM and the EC50 [2] was < 500 nM.
`CC(C)S(=O)(=O)NC(=O)c1c(-c2ccc[nH]c2=O)c2c3c(c(F)cc2n1Cc1cc2ccccc2nc1Cl)CCO3` [Compound 216] was tested, and the IC50 [1, 3] was < 25 nM and the EC50 [2] was < 500 nM.
`Cc1coc2c1ccc1c2c(-c2ccc[nH]c2=O)c(C(=O)O)n1Cc1cc(F)ccc1F` [Compound 47] was tested, and the IC50 [1, 3] was > 100 nM and the EC50 [2] was > 1500 nM.
In the case of `CS(=O)(=O)NC(=O)c1c(-c2ccc[nH]c2=O)c2c3sccc3ccc2n1Cc1cc(F)ccc1F` [Compound 52], the IC50 [1, 3] is reported as < 25 nM and the EC50 [2] is reported as > 1500 nM.
